SMILES strings stand for the structures.

The results in this text go back to patent US9284272B2, “Inhibitors of histone methyltransferase G9a” (AbbVie Inc., priority 2014, dated 2016).

One test relates to MV4;11 cells. The test can be described thus: Differentiation, proliferation, viability and cell cycle of MV4;11 cells, 14 days. It counts as cell-based, human. To be noted: MV4;11 cells. An excerpt:
MV4;11 cells are a human acute myelocytic leukemia (AML) cell line derived from a human with leukemia.

In another test the target is T1, G9a (Homo sapiens, UniProt Q96KQ7).
T1 sequence (Q96KQ7 1-1210): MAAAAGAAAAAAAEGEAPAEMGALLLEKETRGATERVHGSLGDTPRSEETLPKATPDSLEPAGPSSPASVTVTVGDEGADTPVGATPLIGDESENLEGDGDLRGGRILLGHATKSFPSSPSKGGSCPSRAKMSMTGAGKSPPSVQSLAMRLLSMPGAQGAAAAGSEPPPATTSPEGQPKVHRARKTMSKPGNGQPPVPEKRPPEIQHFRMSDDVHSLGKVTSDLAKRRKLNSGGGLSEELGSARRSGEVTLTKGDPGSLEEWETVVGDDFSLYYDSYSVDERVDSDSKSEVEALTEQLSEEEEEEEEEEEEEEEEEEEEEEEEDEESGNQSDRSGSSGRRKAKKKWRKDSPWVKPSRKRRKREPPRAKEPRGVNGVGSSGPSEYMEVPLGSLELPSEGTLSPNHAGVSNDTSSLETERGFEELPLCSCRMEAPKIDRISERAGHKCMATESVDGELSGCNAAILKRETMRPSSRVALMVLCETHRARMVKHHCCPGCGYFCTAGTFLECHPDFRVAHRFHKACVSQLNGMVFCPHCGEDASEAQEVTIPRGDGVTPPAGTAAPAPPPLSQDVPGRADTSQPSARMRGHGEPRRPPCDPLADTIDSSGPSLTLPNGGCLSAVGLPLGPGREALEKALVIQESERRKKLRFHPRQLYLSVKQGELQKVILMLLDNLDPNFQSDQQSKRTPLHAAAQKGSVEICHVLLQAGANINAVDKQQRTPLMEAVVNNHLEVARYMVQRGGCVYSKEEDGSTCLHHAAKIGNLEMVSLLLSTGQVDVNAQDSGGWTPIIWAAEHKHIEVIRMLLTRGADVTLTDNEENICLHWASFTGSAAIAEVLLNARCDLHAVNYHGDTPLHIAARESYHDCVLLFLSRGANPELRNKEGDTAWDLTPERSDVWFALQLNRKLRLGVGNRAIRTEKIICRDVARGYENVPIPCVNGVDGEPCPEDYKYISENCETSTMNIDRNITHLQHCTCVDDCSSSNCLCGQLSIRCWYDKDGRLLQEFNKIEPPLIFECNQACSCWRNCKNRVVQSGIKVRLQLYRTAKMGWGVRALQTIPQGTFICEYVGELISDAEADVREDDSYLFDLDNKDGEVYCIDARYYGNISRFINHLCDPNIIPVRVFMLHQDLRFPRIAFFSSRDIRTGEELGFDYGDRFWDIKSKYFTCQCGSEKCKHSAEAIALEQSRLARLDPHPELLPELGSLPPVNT
In words: Inhibition of G9a, AlphaLISA assay. It counts as biochemical. On the procedure: The G9a assay was conducted in an Alphascreen format to detect methyl modification of a histone H3 peptide by the histone methyl transferase activity of the G9a enzyme.
For the assay, the following buffer was used to set up reactions: 50 mM Tris-HCl pH 7.5, 50 mM NaCl, 1 mM DTT, 0.01% Triton X-100, and 0.005% BSA, with the DTT and BSA added fresh prior to starting the reactions.
IC50 values were calculated by fitting the inhibition percent to the concentration of inhibitor [I] in the assay in equation 1 below, to solve for the IC50.
In general terms: Bead proximity is the source of the signal in Alpha formats.

Consider `CC1=C(/C=C/C(C)=C/C=C/C(C)=C/C(=O)O)C(C)(C)CCC1` [ATRA, all trans retinoic acid, reference compound], for which, in the test on MV4;11 cells (0-3 μM), the “cell cycle analysis (PI staining)” value is listed as “more cells were observed to be in the subG1/G0 phase” and the “expression of marker CD11b by flow cytometry (differentiation)” value is on record as “more cells in the population expressed the marker CD11b”. For the same compound, the “effect on cell viability” value in the test on MV4;11 cells (compared with Example 7) was “less of an effect on cell viability”. The “growth inhibition and expression of CD11b” value in the test with MV4;11 cells (increasing concentration) is “lead to growth inhibition and expression of CD11b”.

What is called IC50 is the midpoint of a concentration-inhibition curve. Higher therefore signals weaker potency in that assay. Compound `COc1cc2c(cc1OC)C1(CCCC1)C(N)=N2` [Example 4, 5′,6′-dimethoxyspiro[cyclopentane-1,3′-indol]-2′-amine] registered an IC50 against G9a of 2.46 µM.

Turning to `COc1cc2c(cc1OCC1CCCN1C)N=C(N)C21CCC1` (stereo not shown) [Example 9, 5′-methoxy-6′-((1-methylpyrrolidin-2-yl)methoxy)spiro[cyclobutane-1,3′-indol]-2′-amine], the 50% inhibitory concentration (IC50) at G9a was determined as 0.005 µM. Still for that read-out and setting: for `COc1ccc2c(c1)C1(CCC1)C(N)=N2` [Example 5, 5′-methoxyspiro[cyclobutane-1,3′-indol]-2′-amine] the value was 18.2 µM; for `COc1cc2c(cc1OCCCn1ccnc1)N=C(N)C21CCC1` [Example 11, 6′-(3-(1H-imidazol-1-yl)propoxy)-5′-methoxyspiro[cyclobutane-1,3′-indol]-2′-amine], 0.754 µM. `COc1cc2c(cc1OCCCN1CCCC1)N=C(N)C2(C)C` [Example 16, 5-methoxy-3,3-dimethyl-6-(3-(pyrrolidin-1-yl)propoxy)-3H-indol-2-amine] displayed an IC50 on G9a of 0.0009 µM.

Compound `COc1cc2c(cc1OCCCN1CC(F)(F)C1)N=C(N)C21CCC1` [Example 14, 6′-(3-(3,3-difluoroazetidin-1-yl)propoxy)-5′-methoxyspiro[cyclobutane-1,3′-indol]-2′-amine] came in with an IC50 against G9a of 1.34 µM.

In turn, `COc1cc2c(cc1OCCCC1CCCC1)N=C(N)C2(C)C` [Example 17, 6-(3-cyclopentylpropoxy)-5-methoxy-3,3-dimethyl-3H-indol-2-amine] showed an IC50 against G9a of 12.9 µM.

Turning to `COc1cc2c(cc1OCCCN1CC[C@H](F)C1)N=C(N)C21CCC1` [Example 12, (S)-6′-(3-(3-fluoropyrrolidin-1-yl)propoxy)-5′-methoxyspiro[cyclobutane-1,3′-indol]-2′-amine], on G9a, the midpoint of inhibition, the IC50, lay at 0.0037 µM.

Take `COc1cc2c(cc1OCC1CCN(C)C1)N=C(N)C21CCC1` (stereo not shown) [Example 8, 5′-methoxy-6′-((1-methylpyrrolidin-3-yl)methoxy)spiro[cyclobutane-1,3′-indol]-2′-amine]: on G9a, the IC50 turned out to be 0.001 µM. Same read-out and setting: for `COc1cc2c(cc1OC)N=C(N)C2` [Example 6, 5,6-dimethoxy-3H-indol-2-amine] the value was 14.4 µM; for `COc1cc2c(cc1OCCCN1CC(F)C1)N=C(N)C21CCC1` [Example 13, 6′-(3-(3-fluoroazetidin-1-yl)propoxy)-5′-methoxyspiro[cyclobutane-1,3′-indol]-2′-amine], 0.0048 µM; for `COc1cc2c(cc1OCCC1CCCN1C)N=C(N)C21CCC1` (stereo not shown) [Example 10, 5′-methoxy-6′-(2-(1-methylpyrrolidin-2-yl)ethoxy)spiro[cyclobutane-1,3′-indol]-2′-amine], 0.15 µM.

Consider `COc1cc2c(cc1OC)C1(CCC1)C(N)=N2` [Example 3, 5′,6′-dimethoxyspiro[cyclobutane-1,3′-indol]-2′-amine], for which the 50% inhibitory concentration (IC50) against G9a was 0.153 µM. Still for that read-out and setting: as for `COc1cc2c(cc1OCCCN1CC[C@@H](F)C1)N=C(N)C21CCC1` [Example 15, (R)-6′-(3-(3-fluoropyrrolidin-1-yl)propoxy)-5′-methoxyspiro[cyclobutane-1,3′-indol]-2′-amine], the figure is 0.018 µM.

Consider `COc1cc2c(cc1OC)C1(CCCCC1)C(N)=N2` [Example 2, 5′,6′-dimethoxyspiro[cyclohexane-1,3′-indol]-2′-amine], for which the IC50 at G9a was found to be 3.54 µM.
